In patent US7118895B2, “Process for producing aglycon by using diglycosidase and flavor-improved food containing the aglycon and converting agent to be used in the process” (Amano Enzyme Inc., priority 2000, dated 2006):

System: Crude diglycosidase
Test: Examination of temperature in the conversion into isoflavone aglycons by diglycosidase using soybean materials
Format: biochemical, Penicillium multicolor IAM7153
Parameters: Decomposition efficiency of glycitin family in roasted soy flour / Decomposition efficiency of daidzin family in roasted soy flour / Decomposition efficiency of genistin family in soymilk / Decomposition efficiency of daidzin family in soymilk / Decomposition efficiency of glycitin family in defatted soybean / Decomposition efficiency of daidzin family in defatted soybean: concentration or dose not given beside the values
How it was run: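 Soybean materials (50 mg) suspended in 20 mM acetate buffer pH 4.0 reacted with crude diglycosidase diluted to 1.88 AU/mL at 80, 65, 55, 45, 37 or 30° C. Reactions stopped with ethanol at 0, 1, 3 and 6 h; isoflavone glycosides and aglycons in supernatant detected by HPLC.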

[1] = 30° C., heat treatment of enzyme no, reaction time 0 h
[2] = 30° C., heat treatment of enzyme no, reaction time 1 h
[3] = 30° C., heat treatment of enzyme no, reaction time 3 h
[4] = 30° C., heat treatment of enzyme no, reaction time 6 h
[5] = 30° C., heat treatment of enzyme yes, reaction time 6 h
[6] = 30 °C, heat treatment of enzyme: no, 0 h
[7] = 30 °C, heat treatment of enzyme: no, 1 h
[8] = 30 °C, heat treatment of enzyme: no, 3 h
[9] = 30 °C, heat treatment of enzyme: no, 6 h
[10] = 30 °C, heat treatment of enzyme: yes, 6 h
[11] = 45° C., heat treatment of enzyme no, reaction time 0 h
[12] = 45° C., heat treatment of enzyme no, reaction time 1 h
[13] = 45° C., heat treatment of enzyme no, reaction time 3 h
[14] = 45° C., heat treatment of enzyme no, reaction time 6 h
[15] = 45° C., heat treatment of enzyme yes, reaction time 6 h
[16] = 45 °C, heat treatment of enzyme: no, 0 h
[17] = 45 °C, heat treatment of enzyme: no, 1 h
[18] = 45 °C, heat treatment of enzyme: no, 3 h
[19] = 45 °C, heat treatment of enzyme: no, 6 h
[20] = 45 °C, heat treatment of enzyme: yes, 6 h
[21] = 55° C., heat treatment of enzyme no, reaction time 0 h
[22] = 55° C., heat treatment of enzyme no, reaction time 1 h
[23] = 55° C., heat treatment of enzyme no, reaction time 3 h
[24] = 55° C., heat treatment of enzyme no, reaction time 6 h
[25] = 55° C., heat treatment of enzyme yes, reaction time 6 h
[26] = 55 °C, heat treatment of enzyme: no, 0 h
[27] = 55 °C, heat treatment of enzyme: no, 1 h
[28] = 55 °C, heat treatment of enzyme: no, 3 h
[29] = 55 °C, heat treatment of enzyme: no, 6 h
[30] = 55 °C, heat treatment of enzyme: yes, 6 h
[31] = 65° C., heat treatment of enzyme no, reaction time 0 h
[32] = 65° C., heat treatment of enzyme no, reaction time 1 h
[33] = 65° C., heat treatment of enzyme no, reaction time 3 h
[34] = 65° C., heat treatment of enzyme no, reaction time 6 h
[35] = 65° C., heat treatment of enzyme yes, reaction time 6 h
[36] = 65 °C, heat treatment of enzyme: no, 0 h
[37] = 65 °C, heat treatment of enzyme: no, 1 h
[38] = 65 °C, heat treatment of enzyme: no, 3 h
[39] = 65 °C, heat treatment of enzyme: no, 6 h
[40] = 65 °C, heat treatment of enzyme: yes, 6 h
[41] = 80° C., heat treatment of enzyme no, reaction time 0 h
[42] = 80° C., heat treatment of enzyme no, reaction time 1 h
[43] = 80° C., heat treatment of enzyme no, reaction time 3 h
[44] = 80° C., heat treatment of enzyme no, reaction time 6 h
[45] = 80° C., heat treatment of enzyme yes, reaction time 6 h
[46] = 80 °C, heat treatment of enzyme: no, 0 h
[47] = 80 °C, heat treatment of enzyme: no, 1 h
[48] = 80 °C, heat treatment of enzyme: no, 3 h
[49] = 80 °C, heat treatment of enzyme: no, 6 h
[50] = 80 °C, heat treatment of enzyme: yes, 6 h

For `CC(=O)OC[C@H]1O[C@@H](Oc2cc(O)c3c(=O)c(-c4ccc(O)cc4)coc3c2)[C@H](O)[C@@H](O)[C@@H]1O` [acetylgenistin, 6″-O-acetylgenistin], the “Decomposition efficiency of genistin family in concentrated soybean protein” value [1] was 43.1%, the “Decomposition efficiency of genistin family in defatted soybean” value [1] was 1.7% and the “Decomposition efficiency of genistin family in concentrated soybean protein” value [2] was 43.2%. For the same compound, the “Decomposition efficiency of genistin family in defatted soybean” value [2] was 1.3%, the “Decomposition efficiency of genistin family in concentrated soybean protein” value [3] was 43.0% and the “Decomposition efficiency of genistin family in defatted soybean” value [3] was 0.7%. The “Decomposition efficiency of genistin family in concentrated soybean protein” value [4] was 42.5%, the “Decomposition efficiency of genistin family in defatted soybean” value [4] was 0.1% and the “Decomposition efficiency of genistin family in concentrated soybean protein” value [5] was 41.5%. For the same compound, the “Decomposition efficiency of genistin family in defatted soybean” value [5] was 0.4%, the “Decomposition efficiency of genistin family in roasted soy flour” value [6] was 45.5% and the “Decomposition efficiency of genistin family in soymilk” value (from here on “Decomposition efficiency … in soymilk”) [6] was 0.9%. The “Decomposition efficiency of genistin family in roasted soy flour” value [7] was 45.3%, the “Decomposition efficiency … in soymilk” value [7] was “not detected” and the “Decomposition efficiency of genistin family in roasted soy flour” value [8] was 43.8%. The “Decomposition efficiency … in soymilk” value [8] was “not detected”, the “Decomposition efficiency of genistin family in roasted soy flour” value [9] was 40.6% and the “Decomposition efficiency … in soymilk” value [9] was “not detected”. The “Decomposition efficiency of genistin family in roasted soy flour” value [10] was 43.8%, the “Decomposition efficiency … in soymilk” value [10] was 0.9% and the “Decomposition efficiency of genistin family in concentrated soybean protein” value [11] was 43.0%. For the same compound, the “Decomposition efficiency of genistin family in defatted soybean” value [11] was 1.5%, the “Decomposition efficiency of genistin family in concentrated soybean protein” value [12] was 42.8% and the “Decomposition efficiency of genistin family in defatted soybean” value [12] was 0.8%. For the same compound, the “Decomposition efficiency of genistin family in concentrated soybean protein” value [13] was 41.0%, the “Decomposition efficiency of genistin family in defatted soybean” value [13] was 0.3% and the “Decomposition efficiency of genistin family in concentrated soybean protein” value [14] was 39.6%. The “Decomposition efficiency of genistin family in defatted soybean” value [14] was 0.2%, the “Decomposition efficiency of genistin family in concentrated soybean protein” value [15] was 38.9% and the “Decomposition efficiency of genistin family in defatted soybean” value [15] was 0.2%. The “Decomposition efficiency of genistin family in roasted soy flour” value [16] was 45.3%, the “Decomposition efficiency … in soymilk” value [16] was 0.9% and the “Decomposition efficiency of genistin family in roasted soy flour” value [17] was 43.6%. The “Decomposition efficiency … in soymilk” value [17] was “not detected”, the “Decomposition efficiency of genistin family in roasted soy flour” value [18] was 38.5% and the “Decomposition efficiency … in soymilk” value [18] was “not detected”. For the same compound, the “Decomposition efficiency of genistin family in roasted soy flour” value [19] was 31.7%, the “Decomposition efficiency … in soymilk” value [19] was “not detected” and the “Decomposition efficiency of genistin family in roasted soy flour” value [20] was 39.5%. The “Decomposition efficiency … in soymilk” value [20] was 0.6%, the “Decomposition efficiency of genistin family in concentrated soybean protein” value [21] was 42.9% and the “Decomposition efficiency of genistin family in defatted soybean” value [21] was 1.7%. For the same compound, the “Decomposition efficiency of genistin family in concentrated soybean protein” value [22] was 43.1%, the “Decomposition efficiency of genistin family in defatted soybean” value [22] was 0.7% and the “Decomposition efficiency of genistin family in concentrated soybean protein” value [23] was 41.1%. For the same compound, the “Decomposition efficiency of genistin family in defatted soybean” value [23] was 0.2%, the “Decomposition efficiency of genistin family in concentrated soybean protein” value [24] was 39.0% and the “Decomposition efficiency of genistin family in defatted soybean” value [24] was 0.1%. For the same compound, the “Decomposition efficiency of genistin family in concentrated soybean protein” value [25] was 41.1%, the “Decomposition efficiency of genistin family in defatted soybean” value [25] was 0.4% and the “Decomposition efficiency of genistin family in roasted soy flour” value [26] was 45.7%. The “Decomposition efficiency … in soymilk” value [26] was 0.6%, the “Decomposition efficiency of genistin family in roasted soy flour” value [27] was 42.5% and the “Decomposition efficiency … in soymilk” value [27] was “not detected”. The “Decomposition efficiency of genistin family in roasted soy flour” value [28] was 34.0%, the “Decomposition efficiency … in soymilk” value [28] was “not detected” and the “Decomposition efficiency of genistin family in roasted soy flour” value [29] was 27.3%. For the same compound, the “Decomposition efficiency … in soymilk” value [29] was “not detected”, the “Decomposition efficiency of genistin family in roasted soy flour” value [30] was 39.9% and the “Decomposition efficiency … in soymilk” value [30] was 0.7%. For the same compound, the “Decomposition efficiency of genistin family in concentrated soybean protein” value [31] was 43.1%, the “Decomposition efficiency of genistin family in defatted soybean” value [31] was 1.5% and the “Decomposition efficiency of genistin family in concentrated soybean protein” value [32] was 45.2%. The “Decomposition efficiency of genistin family in defatted soybean” value [32] was 1.2%, the “Decomposition efficiency of genistin family in concentrated soybean protein” value [33] was 44.0% and the “Decomposition efficiency of genistin family in defatted soybean” value [33] was 1.2%. For the same compound, the “Decomposition efficiency of genistin family in concentrated soybean protein” value [34] was 43.4%, the “Decomposition efficiency of genistin family in defatted soybean” value [34] was 1.1% and the “Decomposition efficiency of genistin family in concentrated soybean protein” value [35] was 42.3%. The “Decomposition efficiency of genistin family in defatted soybean” value [35] was 1.3%, the “Decomposition efficiency of genistin family in roasted soy flour” value [36] was 45.5% and the “Decomposition efficiency … in soymilk” value [36] was 0.9%. For the same compound, the “Decomposition efficiency of genistin family in roasted soy flour” value [37] was 43.6%, the “Decomposition efficiency … in soymilk” value [37] was “not detected” and the “Decomposition efficiency of genistin family in roasted soy flour” value [38] was 40.5%. For the same compound, the “Decomposition efficiency … in soymilk” value [38] was “not detected”, the “Decomposition efficiency of genistin family in roasted soy flour” value [39] was 38.8% and the “Decomposition efficiency … in soymilk” value [39] was “not detected”. For the same compound, the “Decomposition efficiency of genistin family in roasted soy flour” value [40] was 44.3%, the “Decomposition efficiency … in soymilk” value [40] was 1.1% and the “Decomposition efficiency of genistin family in concentrated soybean protein” value [41] was 43.0%. The “Decomposition efficiency of genistin family in defatted soybean” value [41] was 1.5%, the “Decomposition efficiency of genistin family in concentrated soybean protein” value [42] was 44.0% and the “Decomposition efficiency of genistin family in defatted soybean” value [42] was 1.8%. For the same compound, the “Decomposition efficiency of genistin family in concentrated soybean protein” value [43] was 43.6%, the “Decomposition efficiency of genistin family in defatted soybean” value [43] was 2.1% and the “Decomposition efficiency of genistin family in concentrated soybean protein” value [44] was 43.4%. The “Decomposition efficiency of genistin family in defatted soybean” value [44] was 2.5%, the “Decomposition efficiency of genistin family in concentrated soybean protein” value [45] was 41.4% and the “Decomposition efficiency of genistin family in defatted soybean” value [45] was 2.4%. The “Decomposition efficiency of genistin family in roasted soy flour” value [46] was 45.3%, the “Decomposition efficiency … in soymilk” value [46] was 0.9% and the “Decomposition efficiency of genistin family in roasted soy flour” value [47] was 48.5%. For the same compound, the “Decomposition efficiency … in soymilk” value [47] was 0.9%, the “Decomposition efficiency of genistin family in roasted soy flour” value [48] was 48.2% and the “Decomposition efficiency … in soymilk” value [48] was 1.0%. The “Decomposition efficiency of genistin family in roasted soy flour” value [49] was 47.7%, the “Decomposition efficiency … in soymilk” value [49] was 2.3% and the “Decomposition efficiency of genistin family in roasted soy flour” value [50] was 43.4%. For the same compound, the “Decomposition efficiency … in soymilk” value [50] was 2.5%.
